Assays:
Format in all cases: binding
[1] = biological target: T1, kinases (KINOMEscan panel) (Homo sapiens, UniProt O14757); details: CHEK1; NEW KINOMEscan
T1 sequence (O14757 1-476): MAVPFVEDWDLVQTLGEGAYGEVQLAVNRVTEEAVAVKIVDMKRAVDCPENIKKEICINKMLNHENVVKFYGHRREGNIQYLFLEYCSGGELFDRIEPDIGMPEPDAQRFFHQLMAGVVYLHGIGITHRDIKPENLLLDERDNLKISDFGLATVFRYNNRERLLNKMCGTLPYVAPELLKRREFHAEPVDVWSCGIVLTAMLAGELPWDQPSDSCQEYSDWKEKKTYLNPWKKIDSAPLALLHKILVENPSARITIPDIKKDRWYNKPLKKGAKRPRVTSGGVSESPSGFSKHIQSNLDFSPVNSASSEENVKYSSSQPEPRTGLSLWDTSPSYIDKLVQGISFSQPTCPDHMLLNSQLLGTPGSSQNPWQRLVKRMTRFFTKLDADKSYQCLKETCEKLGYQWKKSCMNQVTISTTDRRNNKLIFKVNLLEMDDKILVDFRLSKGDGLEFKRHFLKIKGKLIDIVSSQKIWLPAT

[2] = biological target: kinases (KINOMEscan panel) (Homo sapiens, UniProt O15264)
kinases (KINOMEscan panel) (Homo sapiens, UniProt O15264), sequence (O15264 whole entry): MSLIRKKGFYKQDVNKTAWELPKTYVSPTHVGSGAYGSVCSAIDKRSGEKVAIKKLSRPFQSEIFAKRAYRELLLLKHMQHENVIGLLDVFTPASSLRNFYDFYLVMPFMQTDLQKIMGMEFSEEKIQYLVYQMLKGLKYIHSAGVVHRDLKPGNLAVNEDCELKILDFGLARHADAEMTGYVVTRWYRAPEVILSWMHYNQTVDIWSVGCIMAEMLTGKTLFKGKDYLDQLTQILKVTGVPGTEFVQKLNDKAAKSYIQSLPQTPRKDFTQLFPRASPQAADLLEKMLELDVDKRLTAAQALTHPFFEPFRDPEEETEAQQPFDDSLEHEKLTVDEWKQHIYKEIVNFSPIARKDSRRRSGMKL

[3] = biological target: T2, kinases (KINOMEscan panel) (Homo sapiens, UniProt O15530); details: NEW KINOMEscan
T2 sequence (O15530 1-556): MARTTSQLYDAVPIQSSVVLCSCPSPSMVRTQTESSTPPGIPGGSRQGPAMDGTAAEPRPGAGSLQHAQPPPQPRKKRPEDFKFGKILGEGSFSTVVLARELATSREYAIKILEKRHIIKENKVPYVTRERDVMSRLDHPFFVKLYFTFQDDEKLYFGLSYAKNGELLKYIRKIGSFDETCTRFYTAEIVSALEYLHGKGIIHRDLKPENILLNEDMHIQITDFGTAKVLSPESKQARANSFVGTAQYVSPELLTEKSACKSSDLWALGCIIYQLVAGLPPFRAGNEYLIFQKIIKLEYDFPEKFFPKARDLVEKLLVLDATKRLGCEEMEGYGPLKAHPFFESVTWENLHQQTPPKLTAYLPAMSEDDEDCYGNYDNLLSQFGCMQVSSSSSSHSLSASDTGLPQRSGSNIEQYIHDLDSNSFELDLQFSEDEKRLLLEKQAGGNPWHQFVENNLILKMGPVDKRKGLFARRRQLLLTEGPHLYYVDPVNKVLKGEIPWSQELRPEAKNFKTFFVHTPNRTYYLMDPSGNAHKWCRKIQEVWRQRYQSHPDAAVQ

[4] = biological target: T3, kinases (KINOMEscan panel) (Homo sapiens, UniProt O43318); details: NEW KINOMEscan
T3 sequence (O43318 1-606): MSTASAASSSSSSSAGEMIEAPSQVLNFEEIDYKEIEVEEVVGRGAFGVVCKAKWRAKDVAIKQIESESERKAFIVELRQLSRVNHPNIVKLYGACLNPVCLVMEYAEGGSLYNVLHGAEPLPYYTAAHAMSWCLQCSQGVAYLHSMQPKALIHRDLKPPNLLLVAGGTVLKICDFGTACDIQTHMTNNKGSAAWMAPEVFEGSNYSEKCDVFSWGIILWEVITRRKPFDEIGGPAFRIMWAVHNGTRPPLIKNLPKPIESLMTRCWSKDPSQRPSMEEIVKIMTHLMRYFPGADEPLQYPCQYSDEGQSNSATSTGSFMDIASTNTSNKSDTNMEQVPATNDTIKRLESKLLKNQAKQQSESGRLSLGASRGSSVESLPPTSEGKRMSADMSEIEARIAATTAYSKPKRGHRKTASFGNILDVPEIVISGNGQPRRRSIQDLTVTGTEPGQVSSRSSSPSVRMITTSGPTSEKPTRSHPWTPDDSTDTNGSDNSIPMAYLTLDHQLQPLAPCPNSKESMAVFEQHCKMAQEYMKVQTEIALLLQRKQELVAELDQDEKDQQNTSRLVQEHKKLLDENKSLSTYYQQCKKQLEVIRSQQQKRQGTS

[5] = biological target: kinases (KINOMEscan panel) (Homo sapiens, UniProt P27037); details: ACVR2A; NEW KINOMEscan
[6] = biological target: kinases (KINOMEscan panel) (Homo sapiens, UniProt P27448); details: MARK3; NEW KINOMEscan
kinases (KINOMEscan panel) (Homo sapiens, UniProt P27448), sequence (P27448 whole entry): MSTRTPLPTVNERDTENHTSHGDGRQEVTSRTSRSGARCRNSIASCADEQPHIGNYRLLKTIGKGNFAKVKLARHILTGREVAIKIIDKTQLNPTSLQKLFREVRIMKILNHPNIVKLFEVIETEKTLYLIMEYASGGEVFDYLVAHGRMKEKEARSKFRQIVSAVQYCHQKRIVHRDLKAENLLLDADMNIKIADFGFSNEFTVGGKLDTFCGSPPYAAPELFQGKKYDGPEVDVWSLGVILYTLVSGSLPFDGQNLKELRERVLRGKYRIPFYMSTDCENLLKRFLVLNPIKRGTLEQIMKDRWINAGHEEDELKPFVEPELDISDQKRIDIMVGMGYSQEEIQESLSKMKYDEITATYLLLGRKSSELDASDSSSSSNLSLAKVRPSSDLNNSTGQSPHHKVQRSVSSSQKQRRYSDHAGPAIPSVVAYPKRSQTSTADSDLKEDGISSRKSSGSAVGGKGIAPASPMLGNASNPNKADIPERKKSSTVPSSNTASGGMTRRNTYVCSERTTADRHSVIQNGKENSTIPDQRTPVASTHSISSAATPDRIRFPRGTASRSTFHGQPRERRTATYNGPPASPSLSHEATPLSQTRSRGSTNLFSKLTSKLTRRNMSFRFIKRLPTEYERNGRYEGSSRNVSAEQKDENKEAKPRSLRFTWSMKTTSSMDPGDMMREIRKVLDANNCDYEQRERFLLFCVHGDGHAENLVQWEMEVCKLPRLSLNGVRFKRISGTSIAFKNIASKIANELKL

[7] = biological target: kinases (KINOMEscan panel) (Homo sapiens, UniProt P35590); details: TIE1; NEW KINOMEscan
kinases (KINOMEscan panel) (Homo sapiens, UniProt P35590), sequence (P35590 22-1138): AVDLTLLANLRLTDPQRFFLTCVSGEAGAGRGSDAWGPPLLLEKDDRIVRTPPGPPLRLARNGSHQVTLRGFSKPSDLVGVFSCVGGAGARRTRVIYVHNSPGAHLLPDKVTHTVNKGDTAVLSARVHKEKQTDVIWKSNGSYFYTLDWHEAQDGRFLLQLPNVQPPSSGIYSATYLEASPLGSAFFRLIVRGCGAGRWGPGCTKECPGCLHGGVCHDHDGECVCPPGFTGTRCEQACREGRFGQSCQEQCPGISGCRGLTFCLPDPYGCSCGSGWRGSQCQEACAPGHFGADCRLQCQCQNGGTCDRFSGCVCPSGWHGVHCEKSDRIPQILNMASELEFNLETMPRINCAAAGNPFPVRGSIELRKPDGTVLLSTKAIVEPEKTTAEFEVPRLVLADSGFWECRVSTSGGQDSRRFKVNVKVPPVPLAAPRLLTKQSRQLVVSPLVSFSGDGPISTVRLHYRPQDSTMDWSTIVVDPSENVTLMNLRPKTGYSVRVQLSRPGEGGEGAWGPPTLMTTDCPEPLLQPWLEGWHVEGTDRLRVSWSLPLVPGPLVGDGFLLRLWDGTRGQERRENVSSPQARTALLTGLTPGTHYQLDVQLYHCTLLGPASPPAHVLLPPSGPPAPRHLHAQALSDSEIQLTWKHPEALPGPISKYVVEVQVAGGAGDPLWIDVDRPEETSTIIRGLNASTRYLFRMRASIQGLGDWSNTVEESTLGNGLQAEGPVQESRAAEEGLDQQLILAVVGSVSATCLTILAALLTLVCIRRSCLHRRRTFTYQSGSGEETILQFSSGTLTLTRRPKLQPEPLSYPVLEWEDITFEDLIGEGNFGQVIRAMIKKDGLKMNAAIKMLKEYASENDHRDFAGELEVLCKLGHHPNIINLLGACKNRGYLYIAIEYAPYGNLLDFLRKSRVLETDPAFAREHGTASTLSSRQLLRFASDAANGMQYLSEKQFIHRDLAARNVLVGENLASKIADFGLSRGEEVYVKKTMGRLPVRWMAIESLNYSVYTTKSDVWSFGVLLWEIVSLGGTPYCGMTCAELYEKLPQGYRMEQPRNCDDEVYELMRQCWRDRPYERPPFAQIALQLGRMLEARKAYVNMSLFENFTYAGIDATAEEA

[8] = biological target: kinases (KINOMEscan panel) (Homo sapiens, UniProt P53355); details: kinase DAPK1; NEW KINOMEscan
kinases (KINOMEscan panel) (Homo sapiens, UniProt P53355), sequence (P53355 whole entry): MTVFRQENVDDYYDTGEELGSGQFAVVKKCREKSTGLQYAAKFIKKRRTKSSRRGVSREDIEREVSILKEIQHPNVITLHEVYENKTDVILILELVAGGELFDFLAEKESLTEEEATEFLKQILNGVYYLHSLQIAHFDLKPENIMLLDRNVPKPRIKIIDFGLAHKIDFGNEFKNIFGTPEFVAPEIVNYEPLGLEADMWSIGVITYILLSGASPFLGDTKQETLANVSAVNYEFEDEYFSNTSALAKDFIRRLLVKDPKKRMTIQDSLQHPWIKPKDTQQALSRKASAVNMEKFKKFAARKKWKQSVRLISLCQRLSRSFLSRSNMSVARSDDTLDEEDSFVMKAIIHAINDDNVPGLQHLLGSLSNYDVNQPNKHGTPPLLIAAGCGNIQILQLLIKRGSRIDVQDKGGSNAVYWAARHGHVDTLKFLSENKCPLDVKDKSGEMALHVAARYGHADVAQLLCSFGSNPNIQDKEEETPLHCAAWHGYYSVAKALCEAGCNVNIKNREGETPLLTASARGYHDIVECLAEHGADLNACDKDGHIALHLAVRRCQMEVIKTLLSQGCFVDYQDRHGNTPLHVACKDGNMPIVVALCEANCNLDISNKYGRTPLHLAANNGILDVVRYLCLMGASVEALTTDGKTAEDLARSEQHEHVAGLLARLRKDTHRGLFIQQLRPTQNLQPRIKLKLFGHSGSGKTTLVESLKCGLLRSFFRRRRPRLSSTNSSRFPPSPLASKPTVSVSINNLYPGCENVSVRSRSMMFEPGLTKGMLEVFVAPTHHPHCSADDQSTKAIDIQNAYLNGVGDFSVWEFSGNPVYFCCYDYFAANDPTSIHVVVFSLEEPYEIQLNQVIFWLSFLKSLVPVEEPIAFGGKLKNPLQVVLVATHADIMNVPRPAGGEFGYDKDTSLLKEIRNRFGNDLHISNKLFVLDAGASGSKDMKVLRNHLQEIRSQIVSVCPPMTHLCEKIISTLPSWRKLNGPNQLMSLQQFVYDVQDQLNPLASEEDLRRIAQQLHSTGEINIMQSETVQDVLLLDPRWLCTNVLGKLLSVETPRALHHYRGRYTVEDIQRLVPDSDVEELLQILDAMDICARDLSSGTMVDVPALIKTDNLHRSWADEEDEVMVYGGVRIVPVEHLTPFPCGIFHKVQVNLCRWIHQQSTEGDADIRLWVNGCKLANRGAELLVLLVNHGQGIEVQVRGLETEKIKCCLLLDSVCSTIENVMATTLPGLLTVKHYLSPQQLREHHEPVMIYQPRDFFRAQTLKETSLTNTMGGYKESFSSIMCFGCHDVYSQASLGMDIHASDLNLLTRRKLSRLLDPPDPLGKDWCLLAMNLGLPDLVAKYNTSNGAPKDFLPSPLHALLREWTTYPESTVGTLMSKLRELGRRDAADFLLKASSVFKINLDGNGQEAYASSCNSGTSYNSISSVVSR

[9] = biological target: kinases (KINOMEscan panel) (Homo sapiens, UniProt P54764); details: EPHA4; NEW KINOMEscan
kinases (KINOMEscan panel) (Homo sapiens, UniProt P54764), sequence (P54764 20-986): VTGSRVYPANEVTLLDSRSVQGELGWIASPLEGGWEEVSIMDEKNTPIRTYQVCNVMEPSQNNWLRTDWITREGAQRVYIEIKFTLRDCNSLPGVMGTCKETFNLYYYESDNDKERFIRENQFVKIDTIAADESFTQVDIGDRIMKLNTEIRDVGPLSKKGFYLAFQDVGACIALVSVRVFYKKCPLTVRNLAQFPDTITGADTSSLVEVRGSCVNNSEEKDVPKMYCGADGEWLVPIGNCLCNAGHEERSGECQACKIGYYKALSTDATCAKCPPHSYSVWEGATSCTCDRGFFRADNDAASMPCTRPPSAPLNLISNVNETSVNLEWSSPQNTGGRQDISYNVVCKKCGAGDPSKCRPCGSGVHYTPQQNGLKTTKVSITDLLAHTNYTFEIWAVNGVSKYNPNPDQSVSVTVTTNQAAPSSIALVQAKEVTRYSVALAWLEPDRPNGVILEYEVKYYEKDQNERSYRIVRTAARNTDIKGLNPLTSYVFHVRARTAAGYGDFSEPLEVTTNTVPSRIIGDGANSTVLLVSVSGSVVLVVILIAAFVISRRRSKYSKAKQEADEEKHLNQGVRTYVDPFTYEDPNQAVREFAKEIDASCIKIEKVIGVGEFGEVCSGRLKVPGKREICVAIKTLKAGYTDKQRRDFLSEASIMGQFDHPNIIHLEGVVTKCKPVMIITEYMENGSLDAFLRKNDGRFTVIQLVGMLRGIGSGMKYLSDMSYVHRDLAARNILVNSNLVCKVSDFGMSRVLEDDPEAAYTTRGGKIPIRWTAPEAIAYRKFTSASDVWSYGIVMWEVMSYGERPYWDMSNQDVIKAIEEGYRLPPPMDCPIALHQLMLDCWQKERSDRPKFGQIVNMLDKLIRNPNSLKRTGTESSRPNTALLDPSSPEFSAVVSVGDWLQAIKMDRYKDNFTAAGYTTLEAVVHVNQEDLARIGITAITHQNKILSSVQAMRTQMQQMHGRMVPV

[10] = biological target: kinases (KINOMEscan panel) (Homo sapiens, UniProt Q00526); details: CDK3; NEW KINOMEscan
kinases (KINOMEscan panel) (Homo sapiens, UniProt Q00526), sequence (Q00526 whole entry): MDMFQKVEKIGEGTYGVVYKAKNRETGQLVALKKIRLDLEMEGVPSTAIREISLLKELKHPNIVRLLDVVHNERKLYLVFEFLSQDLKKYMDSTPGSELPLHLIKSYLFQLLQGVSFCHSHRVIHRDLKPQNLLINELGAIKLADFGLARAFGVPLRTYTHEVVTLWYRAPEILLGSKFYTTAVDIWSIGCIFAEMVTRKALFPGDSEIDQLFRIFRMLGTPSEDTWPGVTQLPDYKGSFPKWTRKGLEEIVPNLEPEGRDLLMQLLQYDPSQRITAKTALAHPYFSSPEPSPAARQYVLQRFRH

[11] = biological target: T4, kinases (KINOMEscan panel) (Homo sapiens, UniProt Q08881); details: kinase ITK; NEW KINOMEscan
T4 sequence (Q08881 1-620): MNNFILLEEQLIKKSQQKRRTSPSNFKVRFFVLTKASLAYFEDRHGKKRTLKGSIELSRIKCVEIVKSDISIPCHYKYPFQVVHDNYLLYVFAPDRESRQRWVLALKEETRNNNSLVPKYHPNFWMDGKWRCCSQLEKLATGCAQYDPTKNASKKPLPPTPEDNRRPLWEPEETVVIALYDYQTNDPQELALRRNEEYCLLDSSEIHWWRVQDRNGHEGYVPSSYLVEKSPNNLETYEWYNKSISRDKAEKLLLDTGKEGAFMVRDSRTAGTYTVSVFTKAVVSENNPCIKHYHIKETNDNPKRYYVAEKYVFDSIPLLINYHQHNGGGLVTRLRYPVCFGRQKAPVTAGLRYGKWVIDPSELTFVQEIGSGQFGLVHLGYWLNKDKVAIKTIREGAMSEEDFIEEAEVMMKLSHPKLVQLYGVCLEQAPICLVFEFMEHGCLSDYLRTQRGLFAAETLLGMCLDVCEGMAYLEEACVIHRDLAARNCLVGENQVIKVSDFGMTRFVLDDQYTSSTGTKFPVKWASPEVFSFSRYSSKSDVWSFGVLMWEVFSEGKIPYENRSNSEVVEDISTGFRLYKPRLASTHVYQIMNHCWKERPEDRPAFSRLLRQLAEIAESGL

[12] = biological target: kinases (KINOMEscan panel) (Homo sapiens, UniProt Q16512); details: NEW KINOMEscan

Cc1cccc(-c2nc(N(C)c3ccc4ncsc4c3)c3ccccc3n2)n1 [NK-161]
KINOMEscan CHEK1 [1]: 3
KINOMEscan MAPK13/p38-delta [2]: 6
KINOMEscan PDPK1 [3]: 29
KINOMEscan MAP3K7 [4]: 10
KINOMEscan ACVR2A [5]: 0
KINOMEscan MARK3 [6]: 0
KINOMEscan TIE1 [7]: 0
KINOMEscan DAPK1 [8]: 0
KINOMEscan EPHA4 [9]: 5
KINOMEscan CDK3 [10]: 0
KINOMEscan ITK [11]: 14
KINOMEscan PKN1 [12]: 0

Cc1cccc(-c2nc(Nc3ccc4nn(C)cc4c3)c3ccccc3n2)n1 [NK167]
KINOMEscan CHEK1 [1]: 2
KINOMEscan MAPK13/p38-delta [2]: 0
KINOMEscan PDPK1 [3]: 32
KINOMEscan MAP3K7 [4]: 0
KINOMEscan ACVR2A [5]: 0
KINOMEscan MARK3 [6]: 0
KINOMEscan TIE1 [7]: 0
KINOMEscan DAPK1 [8]: 0
KINOMEscan EPHA4 [9]: 0
KINOMEscan CDK3 [10]: 0
KINOMEscan ITK [11]: 0
KINOMEscan PKN1 [12]: 0

Reference: PMC9851200, “Multiparameter phenotypic screening for endogenous TFEB and TFE3 translocation identifies novel chemical series modulating lysosome function” (Autophagy, 2022)
